Molecular target: T1, mouse TLR9 (Mus musculus, UniProt Q9EQU3)
T1 construct: host or cells: HEK293 (293-mTLR9)
T1 sequence (Q9EQU3 26-1032): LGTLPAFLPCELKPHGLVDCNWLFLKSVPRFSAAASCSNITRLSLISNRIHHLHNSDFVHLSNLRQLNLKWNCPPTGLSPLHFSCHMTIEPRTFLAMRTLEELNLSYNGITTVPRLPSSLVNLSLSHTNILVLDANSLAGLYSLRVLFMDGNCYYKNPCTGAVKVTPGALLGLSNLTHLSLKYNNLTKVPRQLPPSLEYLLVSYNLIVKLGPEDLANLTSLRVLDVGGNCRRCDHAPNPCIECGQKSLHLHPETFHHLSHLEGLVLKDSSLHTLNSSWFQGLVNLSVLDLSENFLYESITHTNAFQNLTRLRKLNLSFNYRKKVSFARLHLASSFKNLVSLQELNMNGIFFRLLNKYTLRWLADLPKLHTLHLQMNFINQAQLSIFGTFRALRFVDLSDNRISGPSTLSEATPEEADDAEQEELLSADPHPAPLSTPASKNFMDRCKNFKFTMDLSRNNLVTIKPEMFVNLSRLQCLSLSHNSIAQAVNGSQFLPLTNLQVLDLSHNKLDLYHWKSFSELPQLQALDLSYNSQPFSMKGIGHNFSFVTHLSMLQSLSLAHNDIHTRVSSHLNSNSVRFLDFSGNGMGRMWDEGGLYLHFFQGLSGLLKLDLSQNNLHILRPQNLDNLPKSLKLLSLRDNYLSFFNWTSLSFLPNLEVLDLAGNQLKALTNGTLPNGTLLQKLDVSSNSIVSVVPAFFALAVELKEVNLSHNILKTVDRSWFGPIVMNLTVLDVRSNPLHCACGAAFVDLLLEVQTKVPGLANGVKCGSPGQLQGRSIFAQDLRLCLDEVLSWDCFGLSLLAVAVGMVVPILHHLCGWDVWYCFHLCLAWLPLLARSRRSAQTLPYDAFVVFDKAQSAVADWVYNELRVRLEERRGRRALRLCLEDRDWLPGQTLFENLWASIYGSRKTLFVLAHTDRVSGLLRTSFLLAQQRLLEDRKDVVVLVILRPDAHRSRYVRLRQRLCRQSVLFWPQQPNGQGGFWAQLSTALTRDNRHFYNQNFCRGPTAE
Experiment: Mouse TLR9 reporter gene assay (NF-kB luciferase, HEK293)
Type: cell-based
Settings: CpG1826 100 nM
Method: Compounds were dissolved in dimethyl sulfoxide. The day before transfection, mouse TLR7 genestably-expressing HE293 cell line (293XL-mTLR7 cell, InvivoGen, USA) and mouse TLR9 genestably-expressing HEK293 cell line (293-mTLR9 cell, InvivoGen) were seeded in collagen-coated 6-well plate (AGC techno glass) at 3 × 10^5 cells/well in DMEM (GIBCO) with 10% fetal bovine serum (GIBCO), and 10 μg ml^−1 Blastcidin S HCl (GIBCO) and incubated at 37 °C in 5% CO2. The plates were incubated over-night and then cotransfected with 1 μg (mouse TLR7) or 0.3 μg (mouse TLR9) of pNF-kB-Luciferase reporter in a 10:1 ratio with 4 μl of FuGene6 transfection reagent (Promega corporation, USA) following the manufacturer’s instructions. The plates were incubated 24 h. The cells re-seeded into 96-well plate (AGC techno glass) at 2 × 10^4 cells/well in DMEM (GIBCO) with 10% fetal bovine serum (GIBCO), and 10 μg ml^−1 Blastcidin S HCl (GIBCO) and then inhibition with various concentrations of compound. HCQ (mouse TLR7/9, Acros Organics, United Kingdom) was used as positive control. After 30 min, R848 (mouse TLR7/8 ligand) or CpG1826 (mouse TLR9 ligand, Hokkaido System Science Co., Ltd.) added to each well, wherein each final concentration were adjusted to 200 nM R848 (mouse TLR7) or 100 nM CpG1826 (mouse TLR9). The plates were then incubated an additional 6 h at 37 °C in 5% CO2, and then the luciferase activity was measured as activation of mouse TLR7 and 9. The luciferase activity was evaluated as follows: Bright-GloTM Luciferase Assay System (Promega) was added to the incubated sample (100 μl/well); after 2 min, the luminescence intensity of each sample was measured with a luminometer (Envision).

Row | SMILES | mouse TLR9 activity, reporter signal (compound 0.0001 nM (as headed)) | mouse TLR9 activity, reporter signal (compound 0.001 nM (as headed)) | mouse TLR9 activity, reporter signal (compound 0.003 nM (as headed)) | mouse TLR9 activity, reporter signal (compound 0.01 nM (as headed)) | mouse TLR9 activity, reporter signal (compound 0.03 nM (as headed)) | mouse TLR9 activity, reporter signal (compound 0.1 nM (as headed)) | mouse TLR9 activity, reporter signal (compound 0.3 nM (as headed)) | mouse TLR9 activity, reporter signal (compound 1 nM (as headed)) | mouse TLR9 activity, reporter signal (compound 3 nM (as headed)) | mouse TLR9 activity, reporter signal (compound 10 nM (as headed)) | mouse TLR9 activity, reporter signal (compound 30 nM (as headed)) | mouse TLR9 activity, reporter signal (compound 100 nM (as headed))
1 | CCOc1nc(C)c2nc(-c3cncc(F)c3)n(Cc3ccc(CN4C[C@@H]5C[C@H]4CN5C)cc3)c2n1 [Cpd-7] | 670258 | 769686 | 682550 | 681778 | 778720 | 762582 | 758536 | 750674 | 718794 | 519616 | 67454 | 0
2 | CCN(CCO)CCCC(C)Nc1ccnc2cc(Cl)ccc12 (stereo not drawn) [HCQ, hydroxychloroquine, reference compound] | 670258 | 691508 | 691964 | 727784 | 642512 | 455236 | 212962 | 48988 | 7184 | 3474 | 3862 | 0

— publication PMC7562955 (Nature Communications, 2020)
